According to the supplement of paper PMC11451515:

System: P12-Ichikawa
Assay: cell viability relative to DMSO control; higher = less cytotoxic
Settings: 48 h
How it was run: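 Leukemia cells (NOMO1 or SEM, 500 cells/well; P12-Ichikawa, 1000 cells/well) were seeded in 5 μl in 1536-well plates after at least four passages of adaptation to each medium. They received library compounds in DMSO by pin dosing, 11 threefold points from 47 μM to 0.79 nM. Luminescence with CellTiter-Glo One was read after 48 h at 37°C. Viability is stated per plate relative to DMSO wells, with cell-free wells as background.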

[1] = HPLM + 10% dialyzed FBS, 0.000781 µM
[2] = HPLM + 10% dialyzed FBS, 0.00234 µM
[3] = HPLM + 10% dialyzed FBS, 0.00702 µM
[4] = HPLM + 10% dialyzed FBS, 0.0211 µM
[5] = HPLM + 10% dialyzed FBS, 0.0632 µM
[6] = HPLM + 10% dialyzed FBS, 0.19 µM
[7] = HPLM + 10% dialyzed FBS, 0.569 µM
[8] = HPLM + 10% dialyzed FBS, 1.71 µM
[9] = HPLM + 10% dialyzed FBS, 5.12 µM
[10] = HPLM + 10% dialyzed FBS, 15.4 µM
[11] = HPLM + 10% dialyzed FBS, 46.1 µM
[12] = RPMI 5 mM glucose + 10% FBS, 0.000781 µM
[13] = RPMI 5 mM glucose + 10% FBS, 0.00234 µM
[14] = RPMI 5 mM glucose + 10% FBS, 0.00702 µM
[15] = RPMI 5 mM glucose + 10% FBS, 0.0211 µM
[16] = RPMI 5 mM glucose + 10% FBS, 0.0632 µM
[17] = RPMI 5 mM glucose + 10% FBS, 0.19 µM
[18] = RPMI 5 mM glucose + 10% FBS, 0.569 µM
[19] = RPMI 5 mM glucose + 10% FBS, 1.71 µM
[20] = RPMI 5 mM glucose + 10% FBS, 5.12 µM
[21] = RPMI 5 mM glucose + 10% FBS, 15.4 µM
[22] = RPMI 5 mM glucose + 10% FBS, 46.1 µM
[23] = RPMI 5 mM glucose + 10% dialyzed FBS, 0.000781 µM
[24] = RPMI 5 mM glucose + 10% dialyzed FBS, 0.00234 µM
[25] = RPMI 5 mM glucose + 10% dialyzed FBS, 0.00702 µM
[26] = RPMI 5 mM glucose + 10% dialyzed FBS, 0.0211 µM
[27] = RPMI 5 mM glucose + 10% dialyzed FBS, 0.0632 µM
[28] = RPMI 5 mM glucose + 10% dialyzed FBS, 0.19 µM
[29] = RPMI 5 mM glucose + 10% dialyzed FBS, 0.569 µM
[30] = RPMI 5 mM glucose + 10% dialyzed FBS, 1.71 µM
[31] = RPMI 5 mM glucose + 10% dialyzed FBS, 5.12 µM
[32] = RPMI 5 mM glucose + 10% dialyzed FBS, 15.4 µM
[33] = RPMI 5 mM glucose + 10% dialyzed FBS, 46.1 µM

Compound	cell viability [1]	cell viability [2]	cell viability [3]	cell viability [4]	cell viability [5]	cell viability [6]	cell viability [7]	cell viability [8]	cell viability [9]	cell viability [10]	cell viability [11]	cell viability [12]	cell viability [13]	cell viability [14]	cell viability [15]	cell viability [16]	cell viability [17]	cell viability [18]	cell viability [19]	cell viability [20]	cell viability [21]	cell viability [22]	cell viability [23]	cell viability [24]	cell viability [25]	cell viability [26]	cell viability [27]	cell viability [28]	cell viability [29]	cell viability [30]	cell viability [31]	cell viability [32]	cell viability [33]
CCC1=C[C@@H]2CN(C1)Cc1c([nH]c3ccccc13)[C@@](C(=O)OC)(c1cc3c(cc1OC)N(C)[C@H]1[C@@](O)(C(=O)OC)[C@H](OC(C)=O)[C@]4(CC)C=CCN5CC[C@]31[C@@H]54)C2	106%	110%	94.4%	85.4%	36.2%	15.4%	15.9%	12.6%	12.8%	8.96%	7.62%	108%	108%	96.6%	59.8%	29.6%	16.2%	18.3%	16.5%	11%	9.49%	7.18%	110%	100%	99.7%	89.4%	59.2%	21.7%	29.3%	25.4%	22.4%	13.9%	10.6%
CCC(=O)O[C@@]1([C@@H](C)C[C@H]2[C@@H]3CCC/4=C/C(=O)/C=C\[C@]4(C)[C@@]3(F)[C@@H](O)C[C@]12C)C(=O)CCl	118%	121%	101%	86.8%	79.2%	73%	76.9%	76.9%	70.2%	68.6%	55%	–	–	–	–	–	–	–	–	–	–	–	134%	107%	83.8%	79.9%	59.9%	61.3%	56.2%	57%	54.1%	51.3%	38.5%
CNC(=O)c1cccc(-c2ccc3c(N4CCOC[C@@H]4C)nc(N4CCOC[C@@H]4C)nc3n2)c1	104%	106%	95%	92.4%	87.1%	80.2%	78.8%	67.7%	65.6%	64.8%	62.4%	93.7%	98.6%	86.7%	75.4%	67.2%	57.2%	55.7%	54.3%	54.9%	48.5%	44.5%	98.4%	102%	89.5%	80.6%	72.8%	61.8%	64.6%	58.1%	49.8%	44.7%	39.9%
CCOC(=O)C/1=C(C)/NC(=S)NC1C2=CC=CC(=C2)O (stereo not drawn)	110%	115%	115%	118%	125%	59%	9.07%	6.6%	5.26%	6.98%	5.13%	106%	110%	128%	128%	112%	42.6%	11%	8.73%	7.18%	8.04%	9.16%	102%	102%	113%	113%	120%	93.4%	21%	14.2%	7.5%	9.98%	11.8%
Cc1ccc(C(C)(O)c2nc3ccccc3s2)c(C)c1 (stereo not drawn)	97.8%	110%	103%	108%	106%	114%	82%	109%	79.4%	37.5%	10.2%	91.2%	105%	107%	111%	100%	107%	91%	113%	70.8%	51.2%	8.46%	95.5%	103%	102%	111%	111%	98%	101%	108%	79%	63.9%	13.2%
ClC1=CC=C(CCCOC/2=N/NC(=O)C(=C2NCC3=CN=CC=C3)/Br)C=C1	115%	115%	113%	117%	118%	110%	104%	95.5%	61.6%	35.7%	14.4%	109%	114%	110%	122%	125%	124%	113%	112%	96.3%	69.6%	38.5%	113%	115%	116%	110%	110%	115%	106%	90.4%	56.7%	26.9%	13.7%
O=C(O)c1ccccc1C(=O)Nc1ccc(-c2ccccc2)cc1	123%	118%	128%	124%	128%	125%	123%	119%	122%	114%	108%	–	–	–	–	–	–	–	–	–	–	–	119%	123%	124%	124%	138%	123%	119%	124%	117%	130%	113%
Cc1[nH]c(/C=C2\C(=O)Nc3ccc([S+](=O)([O-])N(C)c4cccc(Cl)c4)cc32)c(C)c1C(=O)N1CCN(C)CC1	118%	130%	124%	119%	126%	127%	119%	110%	111%	76.7%	0.631%	–	–	–	–	–	–	–	–	–	–	–	–	–	–	–	–	–	–	–	–	–	–
Fc1cc(-c2cccc3ncc(-c4cnn(C5CCNCC5)c4)nc23)cc(F)c1CN1CCOCC1	119%	113%	122%	115%	123%	118%	108%	113%	68.8%	57.7%	28.9%	122%	123%	120%	118%	122%	118%	118%	120%	91.2%	70.7%	27.1%	119%	122%	119%	114%	110%	120%	123%	101%	87.2%	60.1%	15.1%
Cl.c1cnc2cc3c(cc2n1)C1CNCC3C1	108%	111%	114%	114%	119%	114%	117%	122%	114%	114%	106%	106%	115%	121%	117%	122%	117%	127%	118%	127%	130%	130%	106%	113%	112%	116%	123%	114%	121%	123%	121%	116%	120%
C#Cc1cccc(Nc2ncnc3cc(OCCOC)c(OCCO)cc23)c1	113%	111%	113%	109%	112%	113%	122%	104%	105%	91.6%	46.2%	118%	101%	107%	119%	110%	119%	111%	109%	98.5%	95.7%	49.4%	115%	110%	118%	110%	113%	108%	106%	111%	104%	91.5%	43.3%
C[C@@H](c1ncncc1F)[C@](O)(Cn1cncn1)c1ccc(F)cc1F	111%	115%	110%	107%	107%	107%	110%	108%	103%	102%	89.6%	123%	130%	119%	121%	111%	119%	116%	114%	98.9%	105%	92.6%	109%	118%	116%	105%	111%	104%	108%	107%	102%	89.5%	91.4%
O=[N+]([O-])c1cn2c(n1)OC[C@@H](OCc1ccc(OC(F)(F)F)cc1)C2	124%	126%	121%	120%	120%	111%	113%	111%	112%	118%	110%	124%	125%	138%	141%	131%	132%	127%	118%	105%	111%	121%	120%	116%	111%	126%	115%	113%	113%	100%	101%	109%	107%
CC(C)OC(=O)CCC/C=C\C[C@@H]1[C@@H](/C=C/[C@@H](O)COc2cccc(C(F)(F)F)c2)[C@H](O)C[C@@H]1O	109%	120%	122%	127%	115%	119%	118%	115%	112%	104%	65.1%	–	–	–	–	–	–	–	–	–	–	–	112%	126%	120%	121%	127%	123%	124%	119%	110%	92.7%	46.1%
CCOC(=O)Nc1ccc(NCc2ccc(F)cc2)cc1N	112%	116%	116%	121%	115%	110%	107%	112%	101%	98.6%	78.6%	113%	122%	122%	109%	122%	114%	118%	114%	109%	107%	102%	118%	113%	122%	118%	110%	121%	113%	111%	98.3%	103%	87.4%
Clc1ccc(C2(c3ccc(-c4cn[nH]c4)cc3)CCNCC2)cc1	91.3%	94.4%	101%	96.8%	101%	98%	92.3%	89.3%	73.2%	57.5%	59.9%	86.9%	94.2%	85.9%	91%	89%	83.1%	78.8%	75.4%	65.9%	43.1%	44.1%	91%	92.2%	90.7%	87.5%	95%	93.5%	91.8%	78.7%	68.5%	49.7%	49.7%
